Molecules are shown by their SMILES.

The target in one assay is T1, human TREK-1 (Homo sapiens, UniProt O95069).
T1 construct: expressed in transfected cells
T1 sequence (O95069 1-426): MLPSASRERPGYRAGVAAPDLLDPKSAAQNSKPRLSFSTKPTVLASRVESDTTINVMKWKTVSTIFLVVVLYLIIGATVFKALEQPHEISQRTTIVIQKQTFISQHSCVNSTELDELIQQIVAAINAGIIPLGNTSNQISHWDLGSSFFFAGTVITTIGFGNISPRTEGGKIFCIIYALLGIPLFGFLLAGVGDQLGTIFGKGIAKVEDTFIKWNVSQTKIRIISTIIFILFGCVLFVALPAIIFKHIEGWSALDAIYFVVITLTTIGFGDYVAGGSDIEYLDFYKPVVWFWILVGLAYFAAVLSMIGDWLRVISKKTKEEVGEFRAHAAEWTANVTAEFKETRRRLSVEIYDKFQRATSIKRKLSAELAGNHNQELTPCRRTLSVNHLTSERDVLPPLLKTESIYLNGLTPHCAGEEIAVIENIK
The experiment in a line: thallium flux assay (TREK1 activation normalized to BL-1249). The assay is classed as cell-based. The following applies: concentration of Example compound 10 μM; normalized to 10 μM BL-1249; CHO-K1 cells stably expressing human TREK-1. The protocol: The term “thallium flux assay” herein refers to a fluorescence-based assay used to monitor the activity of TREK channels. Thallium is a congener of potassium that readily fluxes through the pore of TREK channels. Thallium flux is measured using a commercially available, thallium-sensitive fluorescent dye called Thallos. The detail method is described below.
Method 1 (Thallium Flux Assay);
CHO-K1 cells stably expressing human TREK-1 or HEK293 cells stably expressing human TREK-2 are plated in 384-well plates, cultured overnight, loaded with Thallos dye the following day, treated with test compounds for 10 min, and then treated with thallium stimulus buffer to initiate thallium flux. The change in fluorescence at 25 seconds after thallium addition is normalized to baseline fluorescence (fluorescent intensity at 25 sec after Tl^+ addition)/(average of fluorescent intensity at pre-read).
In the case of `O=C(NCc1ccc(OC(F)(F)F)c(F)c1)c1ccc2ncnn2c1` [Example 1-23], the “TREK1 activation RBL-1249 (%)” value was 63%. As to `O=C(NCc1ccc(Br)cc1Cl)c1ccc2ncnn2c1` [Example 1-28], the “TREK1 activation RBL-1249 (%)” value is listed as 99%.

Still in this assay, the particulars now being: concentration of Example compound 10 μM; normalized to 10 μM BL-1249; CHO-K1 cells stably expressing human TREK-1; read-out: TREK1 activation RBL-1249 (%).
Consider `O=C(NCc1ccc(OC(F)(F)F)cc1)c1ccc(-n2cncn2)cc1` [4-(1H-1,2,4-triazol-1-yl)-N-[4-(trifluoromethoxy)benzyl]benzamide], for which the activation at 10 µM was 63%. For `Cc1cc(OC(F)(F)F)ccc1CNC(=O)c1ccc2ncnn2c1` [Example 1, N-[2-Methyl-4-(trifluoromethoxy)benzyl]-[1,2,4]triazolo[1,5-a]pyridine-6-carboxamide], the activation at 10 µM is 88%. Take `O=C(NCc1ccc(OC(F)(F)F)cc1)c1ccn2cnnc2c1` [Example 1-3, N-[4-(trifluoromethoxy)benzyl][1,2,4]triazolo(4,3-a]pyridine-7-carboxamide]: the activation at 10 µM is 28%. With `O=C(NCc1ccc(Cl)cc1Cl)c1ccc2ncnn2c1` [Example 1-5, N-(2,4-dichlorobenzyl)[1,2,4]triazolo[1,5-a]pyridine-6-carboxamide], the activation at 10 µM came out at 44%. As to `O=C(NCc1ccc(Cl)cc1Cl)c1ccc2[nH]ncc2c1` [Example 1-6, N-(2,4-dichlorobenzyl)-1H-indazole-5-carboxamide], the activation at 10 µM came to 26%. Take `O=C(NCc1ccc(OC(F)(F)F)cc1F)c1ccc(F)nc1` [Example 1-13, 6-fluoro-N-[2-fluoro-4-(trifluoromethoxy)benzyl]nicotinamide]: the activation at 10 µM was determined as 65%. In the case of `O=C(NCc1ccc(C(F)(F)F)cc1Cl)c1cccc2ncnn12` [Example 1-27, N-[2-chloro-4-(trifluoromethyl)benzyl][1,2,4]triazolo[1,5-a]pyridine-5-carboxamide], the activation at 10 µM is 91%. Take `O=C(NCc1ccc(OC(F)(F)F)cc1F)c1ccn2cnnc2c1` [Example 1-29, N-[2-fluoro-4-(trifluoromethoxy)benzyl][1,2,4]triazolo[4,3-a]pyridine-7-carboxamide]: the activation at 10 µM was determined as 80%. With `O=C(NCc1ccc(C(F)(F)F)cc1Cl)c1ccn2cnnc2c1` [Example 1-31, N-[2-chloro-4-(trifluoromethyl)benzyl][1,2,4]triazolo[4,3-a]pyridine-7-carboxamide], the activation at 10 µM stood at 90%. In the case of `O=C(NCc1ccc(OC(F)(F)F)cc1)c1cc2cccnc2s1` [Example 1-33, N-(4-(trifluoromethoxy)benzyl]thieno[2,3-b]pyridine-2-carboxamide], the activation at 10 µM turned out to be 26%. For `O=C(NCc1ccc(OC(F)(F)F)cc1)c1cnc(C(F)(F)F)nc1` [Example 1-34, N-[4-(trifluoromethoxy)benzyl]-2-(trifluoromethyl)-5-pyrimidinecarboxamide], the activation at 10 µM was 33%. For `O=C(NCc1ccc(OC(F)(F)F)cc1)c1ccc2nccnc2c1` [Example 1-36, N-[4-(trifluoromethoxy)benzyl]-6-quinoxalinecarboxamide], the activation at 10 µM amounted to 26%. Still for that read-out and setting: in the case of `Cc1cc(OC(F)(F)F)ccc1CNC(=O)c1ccn2cnnc2c1` [Example 1-45, N-[2-methyl-4-(trifluoromethoxy)benzyl][1,2,4]triazolo[4,3-a]pyridine-7-carboxamide] it was 85%; in that of `Cc1cc(OC(F)(F)F)ccc1CNC(=O)c1cc2ncccn2n1` [Example 1-46, N-[2-methyl-4-(trifluoromethoxy)benzyl]pyrazolo[1,5-a]pyrimidine-2-carboxamide], 67%; in that of `O=C(NCc1ccc(C(F)(F)F)cc1Cl)c1cc2ncccn2n1` [Example 1-47, N-(2-chloro-4-(trifluoromethyl)benzyl]pyrazolo[1,5-a]pyrimidine-2-carboxamide], 63%. Still for that read-out and setting: in the case of `O=C(NCc1ccc(OC(F)(F)F)cc1F)c1cc2ncccn2n1` [Example 1-50, N-[2-fluoro-4-(trifluoromethoxy)benzyl]pyrazolo[1,5-a]pyrimidine-2-carboxamide] it was 66%; in that of `COc1cc(OC(F)(F)F)ccc1CNC(=O)c1cc2ncccn2n1` [Example 1-51, N-[2-methoxy-4-(trifluoromethoxy)benzyl]pyrazolo[1,5-a]pyrimidine-2-carboxamide], 65%. For the compound `O=C(NCc1ccc(OC(F)(F)F)c(F)c1)c1cc2ncccn2n1` [Example 1-52, N-[3-fluoro-4-(trifluoromethoxy)benzyl]pyrazolo[1,5-a]pyrimidine-2-carboxamide], the activation at 10 µM was found to be 75%. In the case of `O=C(NCc1ccc(OC(F)(F)F)cc1)c1ccc2[nH]ncc2c1` [Example 1-71, N-[4-(trifluoromethoxy)benzyl]-1H-indazole-5-carboxamide], the activation at 10 µM is 19%. On to `O=C(NCc1ccc(Br)cc1Cl)c1ccc2[nH]nnc2c1` [Example 1-76, N-[(4-bromo-2-chlorophenyl)methyl]-1H-benzotriazole-5-carboxamide], for which the activation at 10 µM was 101%. For `O=C(NCc1ccc(OC(F)(F)F)cc1F)c1cnc2ccnn2c1` [Example 1-81, N-[[2-fluoro-4-(trifluoromethoxy)phenyl]methyl]pyrazolo[1,5-a]pyrimidine-6-carboxamide], the activation at 10 µM worked out at 78%.

Regarding `O=C(NCc1ccc(Br)cc1Cl)c1ccc2snnc2c1` [Example 1-86, N-[(4-bromo-2-chlorophenyl)methyl]-1,2,3-benzothiadiazole-5-carboxamide], the activation at 10 µM is 75%. Same read-out and setting: the same measure for `Cc1cc(OC(F)(F)F)ccc1CNC(=O)c1ccn2ccnc2c1` [Example 1-87, N-[[2-methyl-4-(trifluoromethoxy)phenyl]methyl]imidazo[1,2-a]pyridine-7-carboxamide]: 72%; for `N#Cc1cc(OC(F)(F)F)ccc1CNC(=O)c1ccc2ncnn2c1` [Example 1-89, N-[[2-cyano-4-(trifluoromethoxy)phenyl]methyl]-[1,2,4]triazolo[1,5-a]pyridine-6-carboxamide]: 70%; for `O=C(NCc1ccc(OC(F)F)cc1Cl)c1ccc2ncnn2c1` [Example 1-92, N-[[2-chloro-4-(difluoromethoxy)phenyl]methyl]-[1,2,4]triazolo[1,5-a]pyridine-6-carboxamide]: 70%. The same measure, in the same setting: the same measure for `COc1cc(OC(F)(F)F)ccc1CNC(=O)c1ccc(-n2cncn2)cc1` [Example 2-1, N-[2-methoxy-4-(trifluoromethoxy)benzyl]-4-(1H-1,2,4-triazol-1-yl)benzamide]: 54%.

Staying with this assay, now noted: concentration of Example compound 30 μM; normalized to 10 μM BL-1249; CHO-K1 cells stably expressing human TREK-1.
For `Cc1cc(OC(F)(F)F)ccc1CNC(=O)c1cc(F)nc(F)c1` [Example 1-55, 2-6-difluoro-N-[2-methyl-4-(trifluorothoxy)benzyl]isonicotinamide], the “TREK1 activation RBL-1249 (%)” value came out at 38%.

The assay is the same for the next values; noted with them: concentration of Example compound 30 μM; normalized to 10 μM BL-1249; CHO-K1 cells stably expressing human TREK-1; read-out: TREK1 activation RBL-1249 (%).
For the compound `O=C(NCc1ccc(OC(F)(F)F)cc1F)c1ccnc(F)c1` [Example 1-12, 2-fluoro-N-[2-fluoro-4-(trifluoromethoxy)benzyl]isonicotinamide], the activation at 30 µM came out at 63%. For the compound `O=C(NCc1ccc(OC(F)(F)F)cc1)c1ccn2ncnc2c1` [Example 1-21, N-[4-(trifluoromethoxy)benzyl][1,2,4]triazolo[1,5-a]pyridine-7-carboxamide], the activation at 30 µM was 73%.

With `COc1cc(OC(F)(F)F)ccc1CNC(=O)c1ccc2ncnn2c1` [Example 1-26, N-[2-methoxy-4-(trifluoromethoxy)benzyl][1,2,4]triazolo[1,5-a]pyridine-6-carboxamide], the activation at 30 µM was 74%.

Turning to `COc1cc(OC(F)(F)F)ccc1CNC(=O)c1ccn2cnnc2c1` [Example 1-30, N-[2-methoxy-4-(trifluoromethoxy)benzyl][1,2,4]triazolo[4,3-a]pyridine-7-carboxamide], the activation at 30 µM was 76%. On the same count and under the same terms, the same measure for `O=C(NCc1ccc(OC(F)(F)F)cc1)c1cn[nH]c(=O)c1` [Example 1-42, 6-oxo-N-[4-(trifluoromethoxy)benzyl]-1,6-dihydro-4-pyridazinecarboxamide]: 41%. On the same count and under the same terms, the same measure for `O=C(NCc1ccc(OC(F)(F)F)cc1)c1nc2ncccn2n1` [Example 1-44, N-[4-(trifluoromethoxy)benzyl][1,2,4]triazolo[1,5-a]pyrimidine-2-carboxamide]: 25%; for `Cc1cc(OC(F)(F)F)ccc1CNC(=O)c1nc2ncccn2n1` [Example 1-61, N-[2-methyl-4-(trifluoromethoxy)benzyl][1,2,4]triazolo[1,5-a]pyrimidine-2-carboxamide]: 48%; for `O=C(NCc1ccc(OC(F)(F)F)cc1)c1ccc2[nH]cnc2c1` [Example 1-72, N-[4-(trifluoromethoxy)benzyl]-1H-benzimidazole-5-carboxamide]: 60%.
